From patent US10513534B2, “2′-chloro nucleoside analogs for HCV infection” (priority 2012, dated 2019)
Where two headings read alike, the source gives them in different places.

What was measured:
Zluc cells = assay: Cytotoxicity evaluation, CellTiter-Blue Cell Viability Assay; settings: Zluc cells, CellTiter-Blue
HCV genotype 1b replicon = assay: HCV replicon assay (Zluc luciferase); format: cell-based
Experimental: Huh-7-derived cell line (Zluc) that harbors an HCV genotype 1b replicon and a luciferase reporter gene was grown in Dulbecco's Modified Eagle Medium (DMEM) supplemented with 10% fetal bovine serum, 2 mM GlutaMAX, 1% MEM nonessential amino acids, 100 IU/mL penicillin, 100 μg/mL streptomycin, and 0.5 mg/mL Geneticin® (G418). For dose response testing the cells were seeded in 96-well plates at 7.5×10^3 cells per well in a volume of 50 μL, and incubated at 37° C./5% CO2. Drug solutions were made up freshly in Huh-7 media as 2× stocks. Ten additional 5-fold dilutions were prepared from these stocks in DMEM without G418. At least three hours after Zluc cells were seeded, drug treatment was initiated by adding 50 μL of drug dilutions to the plates in duplicate. Final concentrations of drug ranged from 100 μM to […]. Cells were then incubated at 37° C./5% CO2. Alternatively, compounds were tested at two concentrations (1 μM and 10 μM). […] For this, media was removed from the plates via gentle tapping. Fifty microliters of ONE-glo luciferase assay reagent was added to each well. The plates were shaken gently for 3 min at room temperature and luminescence was measured on a Victor^3 V 1420 multilabel counter (Perkin Elmer) with a 1 second read time using a 700 nm cut-off filter. The EC50 values were calculated from dose response curves from the resulting best-fit equations determined by Microsoft Excel and XLfit 4.1 software. When screening at two fixed concentrations, the results were expressed as % inhibition at 1 μM and 10 μM.

[1] = Liver triphosphate pharmacokinetics after single oral dose in CD-1 mice; format: in vivo; design: key: + ≤ 15; 15 < ++ ≤ 50; 50 < +++ ≤ 100; 100 < ++++; BLQ = below limit of quantitation; settings: single oral dose 10 mg/kg in PEG 200;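 for Ms Liver TP AUC: pmol·h/g liver normalized to a 1 µmol/kg dose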;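 for Ms Liver TP Cmax: pmol/g liver normalized to a 1 µmol/kg dose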
Experimental: Internal standard solution was added to the homogenate followed by neutralization with 20% ammonium hydroxide solution and addition of 500 μL 1% formic acid. The tissue samples were extracted by weak anion exchange solid phase extraction (SPE). Post extraction, the eluates were evaporated under nitrogen, followed by reconstitution before injection onto the LC-MS/MS system.

[2] = Plasma nucleoside pharmacokinetics after single oral dose in CD-1 mice; format: in vivo; settings: single oral dose 10 mg/kg in PEG 200;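 for Ms Plasma nucleoside AUC: pmol·h/mL plasma normalized to a 1 µmol/kg dose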
Experimental: Plasma samples were analyzed for nucleoside by LC-MS/MS. The internal standard (IS) was either 2′-MeG-D3 or tiapride. For protein precipitation and extraction, each plasma sample (50 μL) was treated with 500 μL of 0.2% formic acid in acetonitrile and 20 μL of the internal standard working solution. After vortexing and centrifugation, 500 μL of the sample extracts were transferred to a new plate, dried under N2 at ˜28° C. and reconstituted with 75 μL of 0.2% FA in water. The extracts were chromatographed on an Aquasil C18 column using a gradient system of 0.2% formic acid in water and acetonitrile. The analytes were detected and quantified by tandem mass spectrometry in positive ion mode on an MDS Sciex API5000 equipped with a Turbo Ionspray® interface. The calibration range was 0.500 (LLOQ) to 200 ng/mL in mouse plasma.

[3] = Zluc cells, 72 hours; read-out: HCV Replicon EC50

With `CC(C)OC(=O)C(C)NP(=O)(OCC1OC(n2cnc3c(=O)[nH]c(N)nc32)C(C)(Cl)C1O)Oc1ccccc1` (mixture of isomers) [Compound 21ii Mixture of P-Diastereoisomers] the CC50 (Zluc cells) was greater than 50 µM and the EC50 (HCV genotype 1b replicon; [3]) was greater than 10 µM.

With `CCOc1nc(N)nc2c1ncn2[C@@H]1O[C@H](COP(=O)(N[C@@H](C)C(=O)OC(C)C)Oc2ccccc2)[C@@H](O)[C@@]1(C)Cl` (single isomer, unassigned) [Compound 17ii Diastereomer 2] the CC50 (Zluc cells) was greater than 50 µM, the “Ms Liver TP AUC” value [1] was “BLQ” and the “Ms Liver TP Cmax” value [1] was “BLQ”. The EC50 (HCV genotype 1b replicon; [3]) was 1 to 10 µM.

Compound `CC(C)OC(=O)[C@H](C)NP(=O)(OC[C@H]1O[C@@H](n2cnc3c(=O)[nH]c(N)nc32)[C@](C)(Cl)[C@@H]1O)Oc1ccccc1` (single isomer, unassigned) [Compound 21ii Diastereomer 2] has a CC50 (Zluc cells) greater than 50 µM and an EC50 (HCV genotype 1b replicon; [3]) greater than 10 µM.

With `CC(C)(CO)C(=O)SCCOP(=O)(NCc1ccccc1)OC[C@H]1O[C@@H](n2ccc(=O)[nH]c2=O)[C@](C)(Cl)[C@@H]1O` (single isomer, unassigned) [Compound 54 Diastereomer 1] the “Ms Liver TP AUC” value [1] was “+ (+ ≤ 150)”, the “Ms Liver TP Cmax” value [1] was “++ (15 < ++ ≤ 50)” and the “Ms Plasma nucleoside AUC” value [2] was “+++ (500 < +++ ≤ 1500)”. The “Ms Plasma nucleoside Cmax” value [2] was “+++ (50 < +++ ≤ 100)”.

Compound `CC(C)(CO)C(=O)SCCOP(=O)(NCc1ccccc1)OC[C@H]1O[C@@H](n2ccc(=O)[nH]c2=O)[C@](C)(Cl)[C@@H]1O` (single isomer, unassigned) [Compound 54 Single Diastereoisomer] has a CC50 (Zluc cells) greater than 50 µM and an EC50 (HCV genotype 1b replicon; [3]) of 1 to 10 µM.

With `CCOC(=O)COP(=O)(OC[C@H]1O[C@@H](n2ccc(=O)[nH]c2=O)[C@](C)(Cl)[C@@H]1O)Oc1ccccc1` (single isomer, unassigned) [Compound 72 Diastereomer 2] the EC50 (HCV genotype 1b replicon; read-out: HCV Replicon EC50; Zluc cells, 72 hours) was greater than 10 µM.

For `CC(C)OC(=O)[C@H](C)NP(=O)(OC[C@H]1O[C@@H](n2cc(F)c3c(N)ncnc32)[C@](C)(Cl)[C@@H]1O)Oc1ccccc1` (single isomer, unassigned) [Compound 207ii Diastereomer 2], the CC50 (Zluc cells) was greater than 50 µM and the EC50 (HCV genotype 1b replicon; [3]) was greater than 10 µM.

Work on `CC(C)OC(=O)[C@H](C)NP1(=O)OC[C@H]2O[C@@H](n3cnc4c(N)ncnc43)[C@](C)(Cl)[C@@H]2O1` (single isomer, unassigned; diastereoisomer 1) [Compound 77ii Diastereoisomer 1] yielded a CC50 (Zluc cells) greater than 50 µM and an EC50 (HCV genotype 1b replicon; [3]) of 1 to 10 µM.

Compound `CC(COC(=O)C(C)C)NP1(=O)OCC2OC(n3cnc4c(N)ncnc43)C(C)(Cl)C2O1` (single isomer, unassigned; diastereoisomer 1) [Compound 95 Diastereoisomer 1] has a CC50 (Zluc cells) greater than 50 µM and an EC50 (HCV genotype 1b replicon; [3]) of 0.25 to 1 µM.

`CC(C)OC(=O)[C@H](C)NP1(=O)OC[C@H]2O[C@@H](n3cnc4c(N)ncnc43)[C@](C)(Cl)[C@@H]2O1` (single isomer, unassigned; diastereoisomer 2) [Compound 77ii Diastereoisomer 2] gave a CC50 (Zluc cells) greater than 50 µM and an EC50 (HCV genotype 1b replicon; [3]) of 0.25 to 1 µM.

Work on `CC(COC(=O)C(C)C)NP1(=O)OCC2OC(n3cnc4c(N)ncnc43)C(C)(Cl)C2O1` (single isomer, unassigned; diastereoisomer 2) [Compound 95 Diastereoisomer 2] yielded a CC50 (Zluc cells) greater than 50 µM and an EC50 (HCV genotype 1b replicon; [3]) of 0.25 to 1 µM.

With `CC(C)OC(=O)[C@H](C)NP1(=O)OC[C@H]2O[C@@H](n3ccc(=O)[nH]c3=O)[C@](C)(Cl)[C@@H]2O1` (single isomer, unassigned; diastereomer 1) [Compound 38ii Diastereomer 1] the “Ms Liver TP AUC” value [1] was “+ (+ ≤ 150)”, the “Ms Liver TP Cmax” value [1] was “+ (+ ≤ 15)” and the “Ms Plasma nucleoside AUC” value [2] was “+++ (500 < +++ ≤ 1500)”. For the same compound, the “Ms Plasma nucleoside Cmax” value [2] was “+++ (50 < +++ ≤ 100)”.

In the case of `CC(C)OC(=O)[C@H](C)NP(=O)(OCCSC(=O)C(C)(C)C)OC[C@H]1O[C@@H](n2ccc(=O)[nH]c2=O)[C@](C)(Cl)[C@@H]1O` (single isomer, unassigned; diastereomer 1) [Compound 43ii Diastereomer 1], the CC50 (Zluc cells) is reported as greater than 50 µM and the EC50 (HCV genotype 1b replicon; [3]) is reported as 0.25 to 1 µM.

With `CC(C)OC(=O)[C@H](C)NP1(=O)OC[C@H]2O[C@@H](n3cnc4c(N)ncnc43)[C@](C)(Cl)[C@@H]2O1` (single isomer, unassigned; diastereomer 1) [Compound 77ii Diastereomer 1] the “Ms Liver TP AUC” value [1] was “++++ (1500 < ++++)”, the “Ms Liver TP Cmax” value [1] was “++++ (100 < ++++)” and the “Ms Plasma nucleoside AUC” value [2] was “+ (+ ≤ 150)”. The “Ms Plasma nucleoside Cmax” value [2] was “+ (+ ≤ 15)”.

For `CC(C)C(=O)OC[C@H](C)NP1(=O)OC[C@H]2O[C@@H](n3cnc4c(N)ncnc43)[C@](C)(Cl)[C@@H]2O1` (single isomer, unassigned; diastereomer 1) [Compound 95i Diastereomer 1], the “Ms Liver TP AUC” value [1] was “+ (+ ≤ 150)”, the “Ms Liver TP Cmax” value [1] was “+ (+ ≤ 15)” and the “Ms Plasma nucleoside AUC” value [2] was “+ (+ ≤ 150)”. The “Ms Plasma nucleoside Cmax” value [2] was “+ (+ ≤ 15)”.

With `CC(C)OC(=O)[C@@H](C)NP(=O)(OC[C@H]1O[C@@H](n2ccc(=O)[nH]c2=O)[C@](C)(Cl)[C@@H]1O)SC1CCCC1` (single isomer, unassigned; diastereomer 1) [Compound 206i Diastereomer 1] the “Ms Liver TP AUC” value [1] was “+++ (500 < +++ ≤ 1500)”, the “Ms Liver TP Cmax” value [1] was “++++ (100 < ++++)” and the “Ms Plasma nucleoside AUC” value [2] was “+++ (500 < +++ ≤ 1500)”. For the same compound, the “Ms Plasma nucleoside Cmax” value [2] was “+++ (50 < +++ ≤ 100)”.

For `CC(C)OC(=O)[C@H](C)NP1(=O)OC[C@H]2O[C@@H](n3ccc(=O)[nH]c3=O)[C@](C)(Cl)[C@@H]2O1` (single isomer, unassigned; diastereomer 2) [Compound 38ii Diastereomer 2], the “Ms Liver TP AUC” value [1] was “+++ (500 < +++ ≤ 1500)”, the “Ms Liver TP Cmax” value [1] was “++ (15 < ++ ≤ 50)” and the “Ms Plasma nucleoside AUC” value [2] was “+++ (500 < +++ ≤ 1500)”. The “Ms Plasma nucleoside Cmax” value [2] was “++++ (100 < ++++)”.

In the case of `CC(C)(CO)C(=O)SCCOP(=O)(NCc1ccccc1)OC[C@H]1O[C@@H](n2ccc(=O)[nH]c2=O)[C@](C)(Cl)[C@@H]1O` (single isomer, unassigned; diastereomer 2) [Compound 54 Diastereomer 2], the “Ms Liver TP AUC” value [1] is reported as “+ (+ ≤ 150)”, the “Ms Liver TP Cmax” value [1] is reported as “+ (+ ≤ 15)” and the “Ms Plasma nucleoside AUC” value [2] is reported as “+++ (500 < +++ ≤ 1500)”. The “Ms Plasma nucleoside Cmax” value [2] was “++ (15 < ++ ≤ 50)”.

In the case of `CC(C)OC(=O)[C@H](C)NP1(=O)OC[C@H]2O[C@@H](n3cnc4c(N)ncnc43)[C@](C)(Cl)[C@@H]2O1` (single isomer, unassigned; diastereomer 2) [Compound 77ii Diastereomer 2], the “Ms Liver TP AUC” value [1] is reported as “++++ (1500 < ++++)”, the “Ms Liver TP Cmax” value [1] is reported as “++++ (100 < ++++)” and the “Ms Plasma nucleoside AUC” value [2] is reported as “+ (+ ≤ 150)”. The “Ms Plasma nucleoside Cmax” value [2] was “+ (+ ≤ 15)”.

With `CC(C)C(=O)OC[C@H](C)NP1(=O)OC[C@H]2O[C@@H](n3cnc4c(N)ncnc43)[C@](C)(Cl)[C@@H]2O1` (single isomer, unassigned; diastereomer 2) [Compound 95i Diastereomer 2] the “Ms Liver TP AUC” value [1] was “++ (150 < ++ ≤ 500)”, the “Ms Liver TP Cmax” value [1] was “+ (+ ≤ 15)” and the “Ms Plasma nucleoside AUC” value [2] was “+ (+ ≤ 150)”. For the same compound, the “Ms Plasma nucleoside Cmax” value [2] was “+ (+ ≤ 15)”.

For `CC(C)OC(=O)[C@@H](C)NP(=O)(OC[C@H]1O[C@@H](n2ccc(=O)[nH]c2=O)[C@](C)(Cl)[C@@H]1O)SC1CCCC1` (single isomer, unassigned; diastereomer 2) [Compound 206i Diastereomer 2], the “Ms Liver TP AUC” value [1] was “+++ (500 < +++ ≤ 1500)”, the “Ms Liver TP Cmax” value [1] was “+++ (50 < +++ ≤ 100)” and the “Ms Plasma nucleoside AUC” value [2] was “+++ (500 < +++ ≤ 1500)”. For the same compound, the “Ms Plasma nucleoside Cmax” value [2] was “+++ (50 < +++ ≤ 100)”.
